These results are taken from US4912120A, “3,5-substituted 4,5-dihydroisoxazoles as transglutaminase inhibitors” (Syntex (U.S.A.) Inc., priority 1987, dated 1990).

Series [1] can be described thus: Toxicity of the Compounds of Formula I. The class given is in vivo. The conditions noted are these: 10 mg/Kg intraperitoneally daily for 14 days, 5 male and 5 female CDI mice per group. How it is done:
Three groups, each composed of 5 male and 5 female CDI mice, were injected intraperitoneally with 10 mg/Kg of 5-(N-benzyloxycarbonyl-L-phenylalaninamidomethyl)-3-bromo-4,5-dihydroisoxazole or 5-(N-benzyloxycarbonyl-L-para-tyrosinamidomethyl)-3-chloro-4,5-dihydroisoxazole daily for 14 days.

For another series, the system named is psoriatic plaque. The series can be described thus: Psoriatic plaque chamber test (Example 13). The class given is in vivo, humans. The note with it: 1% w/w in propylene glycol/Carbopol 940 gel, 0.05 ml in chamber on psoriatic plaque, five subjects, applied days 1-16, readings to day 23. The protocol: To determine the utility of the compounds of Formula (I) for treating psoriasis in humans, the procedure of Example 13 can be followed.
5-(N-benzyloxycarbonyl-L-phenylalaninamidomethyl)-3-bromo-4,5-dihydroisoxazole was levigated into a gel vehicle (see Example 14) to afford a concentration of 1% w/w. The gel vehicle contained primarily propylene glycol which was gelled with Carbopol 940.
0.05 ml of the gel containing active ingredient was filled into a 1 mm deep teflon chamber (Durhing chamber) which was then applied to the psoriatic plaque of each of the five subjects. The plaque was then covered with Scanpor® adhesive tape. The gel was applied on days 1, 3, 5, 8, 10, 12 and 16. Each time, fresh gel, chamber, and tape were used. Readings were taken on Days 5, 10, 12, 16 and 23 (one week off therapy). The presence or absence of a normal appearing epidermis was evaluated using a scale of 0 to 2.

Series [2] deals with blackhead-like lesions and whitehead-like lesions (spontaneous acne-like condition). In words: Mexican Hairless Dog Assays. The class given is in vivo, Mexican hairless beagle dog. The note with it: two dogs. An excerpt:
To determine the utility of the compounds of Formula (I) for treating acne in mammals, one can use the procedures described by DeYoung, et al. Another model examined is the Mexican hairless beagle dog, a procedure for which is set forth in Example 10.
Gel vehicle alone was not effective.

In a further series the test system is transglutaminase. The note with it: prior-art inhibitors; cited from earlier work.
Setting [3] is: 2.5% in gel (2.5% Klucel, 10% diisopropyl adipate, 80% ethanol, 5% propylene glycol), once daily, 14 days.
Setting [4] is: 2.5% in gel (40% dimethylisosorbide, 55% ethanol, 2.5% carbomer 940).

Structures are written as SMILES.

Turning to `O=C(N[C@@H](Cc1ccccc1)C(=O)NCC1CC(Br)=NO1)OCc1ccccc1` (mixture of isomers) [5-(N-benzyloxycarbonyl-L-phenylalaninamidomethyl)-3-bromo-4,5-dihydroisoxazole], in series [1], the toxic effects entry was “No toxic effects”. Also, the “activity against psoriasis (presence or absence of normal appearing epidermis, scale of 0 to 2)” value in the series with psoriatic plaque is “shows activity against psoriasis”. The clearing of lesions entry was “clearing of the majority of blackhead-like lesions and many whitehead-like lesions” in series [2] (setting [3]); “positive results” in series [2] (setting [4]).
Take `O=C(N[C@@H](Cc1ccc(O)cc1)C(=O)NCC1CC(Br)=NO1)OCc1ccccc1` (mixture of isomers) [5-(N-benzyloxycarbonyl-L-paratyrosinamidomethyl)-3-bromo-4,5-dihydroisoxazole]: the clearing of lesions result in series [2] (setting [4]) is reported as “positive results”.
For `NCCSSCCN` [cystamine], in the series with transglutaminase, the effective concentration entry is on record as “greater than 10^-3 M” and the specificity for transglutaminases result is on record as “lacks specificity for transglutaminases”.
As to `O=C(N[C@@H](Cc1ccccc1)C(=O)NCC1CC(Cl)=NO1)OCc1ccccc1` (mixture of isomers) [5-(N-benzyloxycarbonyl-L-phenylalaninamidomethyl)-3-chloro-4,5-dihydroisoxazole], the clearing of lesions result in series [2] (setting [3]) is given as “good clearing”; in series [2] (setting [4]), “positive results”.
Take `O=C(N[C@@H](Cc1ccc(O)cc1)C(=O)NCC1CC(Cl)=NO1)OCc1ccccc1` (stereo partly drawn) [5-(N-benzyloxycarbonyl-L-para-tyrosinamidomethyl)-3-chloro-4,5-dihydroisoxazole]: the toxic effects entry in series [1] is “No toxic effects”.
